Measured values reported in publication PMC9133015 (Nature Communications, 2022).
Several values for one entry are separate records, joined by “and”; a condition that tells them apart may be missing. Identical values can stand only once.

Legend:
Assay type in all cases: cell-based, human
[1] = system: DU145 cells; assay: Anti-proliferation activity assay (CCK8, 72 h); details: for Relative proliferation rate (%) mean / Relative proliferation rate (%) / optical density: DU145; for Relative proliferation rate (%) / optical density: replicates
[2] = system: PC-3 cells; assay: Anti-proliferation activity assay (CCK8, 72 h); details: for Relative proliferation rate (%) mean / Relative proliferation rate (%) / optical density: PC-3; for Relative proliferation rate (%) / optical density: replicates
[3] = system: 22Rv1 cells; assay: Colony formation assay; details: replicates
[4] = system: DU145 cells; assay: Colony formation assay; details: replicates
[5] = system: PC-3 cells; assay: Colony formation assay; details: replicates
[6] = system: 22Rv1 cells; assay: Migration assay (transwell); details: for Cell migration (cell number): replicates
[7] = system: DU145 cells; assay: Migration assay (transwell); details: for Cell migration (cell number): replicates
[8] = system: PC-3 cells; assay: Migration assay (transwell); details: for Cell migration (cell number): PC-3, replicates
[9] = system: DU145 cells; assay: Invasion assay (transwell); details: for Cell invasion (cell number): replicates

Question: `CCN1CCN(C(=O)c2ccc(Nc3ncc(F)c(-c4ccc5nc(N(C)C)sc5c4)n3)nc2)CC1` [YK-2-69] was tested. Which “Relative proliferation rate (%) mean” value ([1]; 0.0049 uM) did it give?
Answer: 5.845%

Question: What about the “Relative proliferation rate (%)” value ([1]; 0.0049 uM) of the same compound?
Answer: 5.804% and 4.647% and 7.084%

Question: And the optical density ([1]; 0.0049 uM)?
Answer: 0.99 and 0.985 and 1.01

Question: What about the “Relative proliferation rate (%) mean” value ([1]; 0.078 uM) of the same compound?
Answer: 13.2988%

Question: What about the “Relative proliferation rate (%)” value ([1]; 0.078 uM) of the same compound?
Answer: 13.2255% and 9.1% and 17.5713%

Question: What about the optical density ([1]; 0.078 uM) of the same compound?
Answer: 0.912 and 0.939 and 0.896

Question: What about the “Relative proliferation rate (%) mean” value ([1]; 0.3125 uM) of the same compound?
Answer: 23.3091%

Question: And the “Relative proliferation rate (%)” value ([1]; 0.3125 uM)?
Answer: 23.3111% and 19.8451% and 26.7709%

Question: And the optical density ([1]; 0.3125 uM)?
Answer: 0.806 and 0.828 and 0.796

Question: And the “Relative proliferation rate (%) mean” value ([1]; 1.25 uM)?
Answer: 41.9044%

Question: What about the “Relative proliferation rate (%)” value ([1]; 1.25 uM) of the same compound?
Answer: 41.8649% and 39.6902% and 44.1582%

Question: What about the optical density ([1]; 1.25 uM) of the same compound?
Answer: 0.611 and 0.623 and 0.607

Question: And the “Relative proliferation rate (%) mean” value ([1]; 5 uM)?
Answer: 55.1717%

Question: What about the “Relative proliferation rate (%)” value ([1]; 5 uM) of the same compound?
Answer: 55.1855% and 52.3717% and 57.9577%

Question: What about the optical density ([1]; 5 uM) of the same compound?
Answer: 0.471 and 0.492 and 0.457

Question: And the “Relative proliferation rate (%) mean” value ([1]; 20 uM)?
Answer: 69.2763%

Question: And the “Relative proliferation rate (%)” value ([1]; 20 uM)?
Answer: 69.3625% and 65.0532% and 73.4131%

Question: What about the optical density ([1]; 20 uM) of the same compound?
Answer: 0.322 and 0.361 and 0.289

Question: And the “Relative proliferation rate (%) mean” value ([1]; 80 uM)?
Answer: 80.2708%

Question: What about the “Relative proliferation rate (%)” value ([1]; 80 uM) of the same compound?
Answer: 80.3045% and 75.4114% and 85.0966%

Question: And the optical density ([1]; 80 uM)?
Answer: 0.207 and 0.254 and 0.162

Question: And the “inhibitory activity against proliferation (in words)” value ([1]; DU145 cells)?
Answer: potent inhibitory activity

Question: And the IC50 ([1]; Homo sapiens, DU-145, read-out: IC50 against proliferation)?
Answer: 3.3 µM

Question: What about the IC50 ([2]; Homo sapiens, PC-3, read-out: IC50 against proliferation) of the same compound?
Answer: 1.07 µM

Question: What about the “Relative proliferation rate (%) mean” value ([2]; 0.0049 uM) of the same compound?
Answer: 6.648%

Question: What about the “Relative proliferation rate (%)” value ([2]; 0.0049 uM) of the same compound?
Answer: 6.621% and 4.33% and 8.993%

Question: What about the optical density ([2]; 0.0049 uM) of the same compound?
Answer: 0.945 and 0.95 and 0.931

Question: And the “Relative proliferation rate (%) mean” value ([2]; 0.078 uM)?
Answer: 18.3188%

Question: And the “Relative proliferation rate (%)” value ([2]; 0.078 uM)?
Answer: 15.5138% and 18.3283% and 21.1144%

Question: What about the optical density ([2]; 0.078 uM) of the same compound?
Answer: 0.855 and 0.811 and 0.807

Question: And the “Relative proliferation rate (%) mean” value ([2]; 0.3125 uM)?
Answer: 33.3383%

Question: And the “Relative proliferation rate (%)” value ([2]; 0.3125 uM)?
Answer: 28.6561% and 33.3333% and 38.0254%

Question: And the optical density ([2]; 0.3125 uM)?
Answer: 0.722 and 0.662 and 0.634

Question: And the “Relative proliferation rate (%) mean” value ([2]; 1.25 uM)?
Answer: 54.3687%

Question: What about the “Relative proliferation rate (%)” value ([2]; 1.25 uM) of the same compound?
Answer: 47.8261% and 54.3807% and 60.8993%

Question: And the optical density ([2]; 1.25 uM)?
Answer: 0.528 and 0.453 and 0.4

Question: What about the “Relative proliferation rate (%) mean” value ([2]; 5 uM) of the same compound?
Answer: 70.2315%

Question: What about the “Relative proliferation rate (%)” value ([2]; 5 uM) of the same compound?
Answer: 66.7984% and 70.1913% and 73.7048%

Question: What about the optical density ([2]; 5 uM) of the same compound?
Answer: 0.336 and 0.296 and 0.269

Question: What about the “Relative proliferation rate (%) mean” value ([2]; 20 uM) of the same compound?
Answer: 81.0679%

Question: And the “Relative proliferation rate (%)” value ([2]; 20 uM)?
Answer: 78.6561% and 81.0675% and 83.48%

Question: And the optical density ([2]; 20 uM)?
Answer: 0.216 and 0.188 and 0.169

Question: And the “Relative proliferation rate (%) mean” value ([2]; 80 uM)?
Answer: 88.776%

Question: What about the “Relative proliferation rate (%)” value ([2]; 80 uM) of the same compound?
Answer: 88.7352% and 82.578% and 95.0147%

Question: What about the optical density ([2]; 80 uM) of the same compound?
Answer: 0.114 and 0.173 and 0.051

Question: And the “inhibitory activity against proliferation (in words)” value ([2]; PC-3 cells)?
Answer: potent inhibitory activity

Question: And the “Colony formation (cell number)” value ([3]; 22Rv1, 0.5 μM)?
Answer: 93 cell number and 88 cell number and 94 cell number

Question: And the “Colony formation (cell number)” value ([3]; 22Rv1, 1 μM)?
Answer: 40 cell number and 56 cell number and 58 cell number

Question: What about the “Colony formation (cell number)” value ([3]; 22Rv1, 2 μM) of the same compound?
Answer: 10 cell number and 9 cell number and 13 cell number

Question: What about the “Colony formation (cell number)” value ([4]; DU145, 2 μM) of the same compound?
Answer: 70 cell number and 67 cell number and 77 cell number

Question: What about the “Colony formation (cell number)” value ([4]; DU145, 4 μM) of the same compound?
Answer: 40 cell number and 38 cell number and 35 cell number

Question: What about the “Colony formation (cell number)” value ([4]; DU145, 8 μM) of the same compound?
Answer: 15 cell number and 12 cell number and 10 cell number

Question: What about the “Colony formation (cell number)” value ([5]; 1 µM) of the same compound?
Answer: 40 cell number and 45 cell number and 35 cell number

Question: What about the “Colony formation (cell number)” value ([5]; 2 µM) of the same compound?
Answer: 10 cell number and 12 cell number and 9 cell number

Question: What about the “Colony formation (cell number)” value ([5]; 4 µM) of the same compound?
Answer: 5 cell number and 6 cell number

Question: What about the “Cell migration (cell number)” value ([6]; 22Rv1, 0.5 μM) of the same compound?
Answer: 1803 cell number and 1758 cell number and 1920 cell number

Question: And the “Cell migration (cell number)” value ([6]; 22Rv1, 1 μM)?
Answer: 710 cell number and 690 cell number and 736 cell number

Question: And the “Cell migration (cell number)” value ([6]; 22Rv1, 2 μM)?
Answer: 422 cell number and 380 cell number and 416 cell number

Question: What about the “migration (in words)” value ([6]; 22Rv1 cells, dose-dependent) of the same compound?
Answer: remarkably inhibited the migration and invasion

Question: What about the “Cell migration (cell number)” value ([7]; DU145, 2 μM) of the same compound?
Answer: 3879 cell number and 3920 cell number and 3723 cell number

Question: What about the “Cell migration (cell number)” value ([7]; DU145, 4 μM) of the same compound?
Answer: 2567 cell number and 2678 cell number and 2788 cell number

Question: What about the “Cell migration (cell number)” value ([7]; DU145, 8 μM) of the same compound?
Answer: 1578 cell number and 1677 cell number and 1723 cell number

Question: What about the “migration (in words)” value ([7]; DU145 cells, dose-dependent) of the same compound?
Answer: remarkably inhibited the migration and invasion

Question: What about the “Cell migration (cell number)” value ([8]; 1 µM) of the same compound?
Answer: 189 cell number and 176 cell number and 199 cell number

Question: What about the “Cell migration (cell number)” value ([8]; 2 µM) of the same compound?
Answer: 110 cell number and 105 cell number and 98 cell number

Question: And the “Cell migration (cell number)” value ([8]; 4 µM)?
Answer: 69 cell number and 65 cell number and 74 cell number

Question: What about the “migration (in words)” value ([8]; PC-3 cells, dose-dependent) of the same compound?
Answer: remarkably inhibited the migration and invasion

Question: And the “Cell invasion (cell number)” value ([9]; DU145, 2 μM)?
Answer: 340 cell number and 358 cell number and 328 cell number

Question: What about the “Cell invasion (cell number)” value ([9]; DU145, 4 μM) of the same compound?
Answer: 258 cell number and 240 cell number and 252 cell number

Question: And the “Cell invasion (cell number)” value ([9]; DU145, 8 μM)?
Answer: 87 cell number and 91 cell number and 82 cell number

Question: What about the “invasion (in words)” value ([9]; DU145 cells, dose-dependent) of the same compound?
Answer: remarkably inhibited the migration and invasion
